Earlier results as cited in patent US12371748B2, “Genetic markers for predicting responsiveness to therapy with HDL-raising or HDL mimicking agent” (Hoffmann-La Roche Inc., priority 2014, dated 2025).

Settings: humans; cited from earlier work

CCC(CC)CC1(C(=O)Nc2ccccc2SC(=O)C(C)C)CCCCC1 [dalcetrapib, thioisobutyric acid S-(2-{[1-(2-ethyl-butyl)-cyclohexanecarbonyl]-amino}-phenyl) ester]
LDL cholesterol: decrease LDL cholesterol
plasma HDL cholesterol: increase plasma HDL cholesterol
